{
  "source": "patent EP4635500A1",
  "about": "“THERAPEUTIC AGENT FOR BACTERIAL INFECTION” (Sumitomo Pharma Co., Ltd., priority 2022, dated 2024)",
  "system": "P. aeruginosa",
  "assay": "MIC, broth microdilution, CDC/FDA Antibiotic Resistance Isolate Bank (Example 7, Tables 10, 15)",
  "assay_type": "cell-based",
  "conditions": "Pseudomonas aeruginosa; for MIC: read-out: MIC",
  "note": "Where two headings read alike, the source gives them in different places.",
  "data": [
    {"smiles": "C[C@@H](O)[C@H]1C(=O)N2C(C(=O)O)=C(S[C@@H]3CN[C@H](C(=O)N(C)C)C3)[C@H](C)[C@H]12", "note": "[MEPM, meropenem]", "values": [
      {"measurement": "MIC", "setting": "KUB No. 5672, AR Bank #239, GES-1, VIM-11", "result": 64, "unit": "µg/mL"},
      {"measurement": "MIC", "setting": "KUB No. 5676, AR Bank #243, VIM-2", "result": 8, "unit": "µg/mL"},
      {"measurement": "MIC", "setting": "KUB No. 5677, AR Bank #244, no carbapenemase gene", "result": 16, "unit": "µg/mL"},
      {"measurement": "MIC", "setting": "KUB No. 5678, AR Bank #245, VIM-2", "result": 8, "unit": "µg/mL"},
      {"measurement": "MIC", "setting": "KUB No. 5684, AR Bank #251, no carbapenemase gene", "result": 1, "unit": "µg/mL"},
      {"measurement": "MIC", "setting": "KUB No. 5685, AR Bank #252, no carbapenemase gene", "result": 2, "unit": "µg/mL"},
      {"measurement": "MIC", "setting": "KUB No. 5686, AR Bank #253, no carbapenemase gene", "result": 0.5, "unit": "µg/mL"},
      {"measurement": "MIC", "setting": "KUB No. 5687, AR Bank #254, VIM-2", "result": 64, "unit": "µg/mL"},
      {"measurement": "MIC", "setting": "KUB No. 5689, AR Bank #256, no carbapenemase gene", "result": 2, "unit": "µg/mL"},
      {"measurement": "MIC", "setting": "KUB No. 5691, AR Bank #258, no carbapenemase gene", "result": 2, "unit": "µg/mL"},
      {"measurement": "MIC", "setting": "KUB No. 5692, AR Bank #259, no carbapenemase gene", "result": 0.5, "unit": "µg/mL"},
      {"measurement": "MIC", "setting": "KUB No. 5694, AR Bank #261, no carbapenemase gene", "result": 0.5, "unit": "µg/mL"},
      {"measurement": "MIC", "setting": "KUB No. 5695, AR Bank #262, no carbapenemase gene", "result": 0.5, "unit": "µg/mL"},
      {"measurement": "MIC", "setting": "KUB No. 5696, AR Bank #263, no carbapenemase gene", "result": "≤ 0.25", "unit": "µg/mL"},
      {"measurement": "MIC", "setting": "KUB No. 5697, AR Bank #264, no carbapenemase gene", "result": 2, "unit": "µg/mL"},
      {"measurement": "MIC", "setting": "KUB No. 5698, AR Bank #265, no carbapenemase gene", "result": 8, "unit": "µg/mL"},
      {"measurement": "MIC", "setting": "KUB No. 5699, AR Bank #266, no carbapenemase gene", "result": 8, "unit": "µg/mL"},
      {"measurement": "MIC", "setting": "KUB No. 5700, AR Bank #267, no carbapenemase gene", "result": 2, "unit": "µg/mL"},
      {"measurement": "MIC", "setting": "KUB No. 5701, AR Bank #268, no carbapenemase gene", "result": 16, "unit": "µg/mL"},
      {"measurement": "MIC", "setting": "KUB No. 5702, AR Bank #269, no carbapenemase gene", "result": 8, "unit": "µg/mL"},
      {"measurement": "MIC", "setting": "KUB No. 5703, AR Bank #270, no carbapenemase gene", "result": 2, "unit": "µg/mL"},
      {"measurement": "MIC", "setting": "KUB No. 5704, AR Bank #271, no carbapenemase gene", "result": 8, "unit": "µg/mL"},
      {"measurement": "MIC", "setting": "KUB No. 5705, AR Bank #272, no carbapenemase gene", "result": 2, "unit": "µg/mL"},
      {"measurement": "MIC", "setting": "KUB No. 5747, AR Bank #351, no carbapenemase gene", "result": 16, "unit": "µg/mL"},
      {"measurement": "MIC", "setting": "KUB No. 5749, AR Bank #353, GES-1", "result": 16, "unit": "µg/mL"},
      {"measurement": "MIC", "setting": "KUB No. 5751, AR Bank #355, no carbapenemase gene", "result": 8, "unit": "µg/mL"},
      {"measurement": "MIC", "setting": "KUB No. 5752, AR Bank #356, KPC-2", "result": 32, "unit": "µg/mL"},
      {"measurement": "MIC", "setting": "KUB No. 5754, AR Bank #358, no carbapenemase gene", "result": 8, "unit": "µg/mL"},
      {"measurement": "MIC", "setting": "KUB No. 5755, AR Bank #359, no carbapenemase gene", "result": 8, "unit": "µg/mL"},
      {"measurement": "MIC", "setting": "KUB No. 5756, AR Bank #360, no carbapenemase gene", "result": 16, "unit": "µg/mL"},
      {"measurement": "MIC", "setting": "KUB No. 5785, AR Bank #439, IMP-18", "result": 64, "unit": "µg/mL"},
      {"measurement": "MIC", "setting": "KUB No. 5786, AR Bank #440, no carbapenemase gene", "result": 8, "unit": "µg/mL"},
      {"measurement": "MIC", "setting": "KUB No. 5787, AR Bank #441, KPC-2", "result": 32, "unit": "µg/mL"},
      {"measurement": "MIC", "setting": "KUB No. 5788, AR Bank #443, no carbapenemase gene", "result": 16, "unit": "µg/mL"},
      {"measurement": "MIC", "setting": "KUB No. 5791, AR Bank #447, no carbapenemase gene", "result": 2, "unit": "µg/mL"},
      {"measurement": "MIC", "setting": "KUB No. 5793, AR Bank #449, no carbapenemase gene", "result": 16, "unit": "µg/mL"},
      {"measurement": "MIC", "setting": "KUB No. 5798, AR Bank #455, no carbapenemase gene", "result": 16, "unit": "µg/mL"},
      {"measurement": "MIC", "setting": "KUB No. 5799, AR Bank #456, no carbapenemase gene", "result": 64, "unit": "µg/mL"},
      {"measurement": "MIC", "setting": "KUB No. 5801, AR Bank #458, no carbapenemase gene", "result": 1, "unit": "µg/mL"},
      {"measurement": "MIC", "setting": "KUB No. 5802, AR Bank #459, no carbapenemase gene", "result": 16, "unit": "µg/mL"},
      {"measurement": "MIC", "setting": "KUB No. 5804, AR Bank #862, no carbapenemase gene", "result": 8, "unit": "µg/mL"},
      {"measurement": "MIC", "setting": "KUB No. 5806, AR Bank #864, no carbapenemase gene", "result": 64, "unit": "µg/mL"},
      {"measurement": "MIC", "setting": "KUB No. 5813, AR Bank #508, no carbapenemase gene", "result": 16, "unit": "µg/mL"},
      {"measurement": "MIC", "setting": "KUB No. 5815, AR Bank #510, no carbapenemase gene", "result": 0.5, "unit": "µg/mL"},
      {"measurement": "MIC", "setting": "KUB No. 5817, AR Bank #512, no carbapenemase gene", "result": 16, "unit": "µg/mL"},
      {"measurement": "MIC", "setting": "KUB No. 5818, AR Bank #513, no carbapenemase gene", "result": 32, "unit": "µg/mL"},
      {"measurement": "MIC", "setting": "KUB No. 5820, AR Bank #515, no carbapenemase gene", "result": 32, "unit": "µg/mL"},
      {"measurement": "MIC", "setting": "KUB No. 5821, AR Bank #516, KPC-2", "result": 64, "unit": "µg/mL"},
      {"measurement": "MIC", "setting": "KUB No. 5831, AR Bank #526, no carbapenemase gene", "result": 8, "unit": "µg/mL"},
      {"measurement": "MIC", "setting": "KUB No. 5832, AR Bank #527, no carbapenemase gene", "result": 16, "unit": "µg/mL"},
      {"measurement": "MIC", "setting": "KUB No. 5833, AR Bank #528, no carbapenemase gene", "result": 8, "unit": "µg/mL"},
      {"measurement": "MIC", "setting": "KUB No. 5834, AR Bank #529, no carbapenemase gene", "result": 8, "unit": "µg/mL"},
      {"measurement": "MIC50", "setting": "96 strains of P. aeruginosa", "result": 16, "unit": "µg/mL"},
      {"measurement": "MIC80", "setting": "96 strains of P. aeruginosa", "result": 64, "unit": "µg/mL"}
    ]}
  ]
}
